Source: patent publication US5567728A, “Receptor ligands” (priority 1991, dated 1996)
Where a name gives a salt, the structure may show the parent alone.

Key:
[1] = target: T1, Human thyroid hormone receptor β1 (hThR β1) (Homo sapiens, UniProt P10828); assay: Binding experiments: displacement of 125I-T-3 from hThR β1; conditions: [hThRβ]=5.0×10^-11 M; [125I-T3]=2.0×10^-10 M; pH 7,5; incubated over night (16-20 hours); not above +4° C
T1 construct: made in house; host or cells: insect cells, recombinant baculovirus
T1 sequence (P10828 1-461): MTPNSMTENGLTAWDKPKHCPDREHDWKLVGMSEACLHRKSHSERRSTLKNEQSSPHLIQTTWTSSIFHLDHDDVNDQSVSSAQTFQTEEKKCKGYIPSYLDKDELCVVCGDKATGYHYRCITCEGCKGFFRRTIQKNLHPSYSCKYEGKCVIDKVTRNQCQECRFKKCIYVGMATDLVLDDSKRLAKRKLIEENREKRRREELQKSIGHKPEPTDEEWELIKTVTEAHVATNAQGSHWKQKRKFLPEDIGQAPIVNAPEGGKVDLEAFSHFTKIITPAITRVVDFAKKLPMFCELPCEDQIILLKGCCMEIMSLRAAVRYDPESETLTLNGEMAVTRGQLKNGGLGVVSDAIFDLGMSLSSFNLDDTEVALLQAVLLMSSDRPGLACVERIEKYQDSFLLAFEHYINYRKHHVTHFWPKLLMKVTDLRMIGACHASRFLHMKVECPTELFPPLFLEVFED
Protocol: Human thyroid hormone receptor β1 (hThR β1) was expressed in insect cells using a recombinant baculovirus (Barkhem T., et al. The Journal of Steroid Biochemistry and Molecular Biology: Vol 38, No 6 (1991) p 667).
Solutions of hThR β1 and of ^125 I-T-3 were made in E400 (K2 HPO4 =20 mM, KCl=400 mM, MgCl2 =l mM, EDTA=0,5 mM, monothioglycerol=6 mM, glycerol 8,7% (v/v), histones (type 11AS) 10 μg/ml pH=7,5). Histones and Monothioglycerol were purchased from Sigma (St. Louis, Mo., USA), the other compounds in E400 were from Merck (Darmstadt, BRD). […] Stock solutions of the compound (011) (20 mM) was made in 5% EtOH/1 mM NaOH.
For convenience the incubations were performed over night (16-20 hours).
The incubation was stopped by the loading of 180 μl incubation mixture on a Quik-Sep Sephadex G-25 column (#9041-35-4 ISOLAB, Akron, Ohio, USA). The peak of protein-bound 125 I-T-3 was eluted with 1 ml E400 and collected in a test tube (passage of free T-3 through column is delayed). The eluted radioactivity was measured in a gamma-counter.
All incubations and dilutions were made in polypropylene tubes. Great care was taken to avoid exposure of hThR β1 to temperatures above +4° C.
(DeLean, A., et al, Am. J. Physiol. 235: E97-E102. (1978)).
The calculations were performed in KaleidaGraph™ 2.0.2 (Adelbeck Software) on a Macintosh IIcx computer.
Experiments conducted with [hThRβ]=5.0×10^-11 M and with [^125 I-T3 ]=2.0×10^-10 M

T-3 receptor = assay: biological assay, such as the method of Westerfield et al. (T-3 receptor antagonism); conditions: "can be shown" by a biological assay such as Westerfield et al.; no data given
[2] = test system: rat growth hormone (rGH) mRNA levels in cultured rat pituitary cells; conditions: dose dependent; cited from earlier work
[3] = test system: coronary vessels of the heart of the rabbit; conditions: cited from earlier work
[4] = test system: isolated intestine of the guinea-pig; conditions: cited from earlier work

Row | Structure (SMILES) | IC50 [1] | T-3 receptor antagonism (T-3 receptor) | inhibition of T-3 induced increase in rGH mRNA levels [2] | dilatory effects on coronary vessels [3] | spasmolytic activity [4]
1 | Oc1ccc(Cc2cc(I)c(O)c(I)c2)cc1I [(032), 4', 4-dihydroxy-3'3,5-triiodo-diphenylmethan] | 0.42 µM | T-3 receptor antagonists |  |  | 
2 | CN(C)CCOc1c(I)cc(C(=O)c2ccc(O)c(I)c2)cc1I [(024), 4'-hydroxy-3'-iodo-3,5-diiodo-4-(2-N,N-dimethylaminoethoxy))benzophenon hydrochloride] | 11 µM | T-3 receptor antagonists |  |  | 
3 | CCCCc1oc2ccccc2c1C(=O)c1cc(I)c(OCCN(CC)CC)c(I)c1 [Amiodarone] |  |  | inhibit T-3 induced increase in rat growth hormone (rGH) mRNA levels |  | 
4 | CCCCc1oc2ccccc2c1C(O)c1cc(I)c(OCCN(CC)CC)c(I)c1 (stereo not shown) [(001), 3,5-diiodo-4-(2-N,N-diethylaminoethoxy)phenyl-(2-butyl-benzofur-3-yl)methanol hydrochloride] | 3.6 µM | T-3 receptor antagonists |  |  | 
5 | CCCCc1oc2ccccc2c1C(=O)c1cc(I)c(OCC(=O)O)c(I)c1 [(005), 2-n-butyl-3-(3,5-diiodo-4-carboxymethoxy-benzoyl)benzofuran] | 4 µM | T-3 receptor antagonists |  |  | 
6 | CCN(CC)CCOc1c(I)cc(C(=O)c2c(C)oc3ccccc23)cc1I [(003), 2-methyl-3-(3,5-diiodo-4-(2-N,N-diethylaminoethoxy)-benzoyl)-benzofuran hydrochloride] | 10 µM | T-3 receptor antagonists |  |  | 

Second part, led by results:

Row | IC50 [1] | T-3 receptor antagonism (T-3 receptor) | Structure (SMILES) | inhibition of T-3 induced increase in rGH mRNA levels [2] | dilatory effects on coronary vessels [3] | spasmolytic activity [4]
7 | 3.2 µM | T-3 receptor antagonists | CCCCc1oc2ccccc2c1C(=O)c1ccc(O)c(I)c1 [(029), 2-butyl-3-(3-iodo-4-hydroxybenzoyl)benzofuran] |  |  | 
8 | 2.5 µM | T-3 receptor antagonists | Cc1oc2ccccc2c1C(=O)c1cc(I)c(O)c(I)c1 [(011), 2-methyl-3-(3,5-diiodo-4-hydroxy-benzoyl)benzofuran] |  | some dilatory effects on the coronary vessels | spasmolytic activity
9 | 8 µM | T-3 receptor antagonists | Cc1oc2ccccc2c1Cc1cc(I)c(OCC(=O)O)c(I)c1 [(015), 2-methyl-3-(3,5-diiodo-4-carboxymethoxybenzyl)benzofuran] |  |  | 
